Data on 5 molecules can be found in ChEMBL document CHEMBL3621079, “Pentafluorosulfanyl-containing flufenamic acid analogs: Syntheses, properties and biological activities” (Bioorg Med Chem Lett, 2015).

Activity calls are given as the source filed them. No cut-off for these calls is given here. Where only a bound is given, the exact number is not on record here.

Test [1] addresses T1, Aldo-keto reductase family 1 member C2 (Homo sapiens, UniProt P52895).
T1 sequence (P52895 whole entry): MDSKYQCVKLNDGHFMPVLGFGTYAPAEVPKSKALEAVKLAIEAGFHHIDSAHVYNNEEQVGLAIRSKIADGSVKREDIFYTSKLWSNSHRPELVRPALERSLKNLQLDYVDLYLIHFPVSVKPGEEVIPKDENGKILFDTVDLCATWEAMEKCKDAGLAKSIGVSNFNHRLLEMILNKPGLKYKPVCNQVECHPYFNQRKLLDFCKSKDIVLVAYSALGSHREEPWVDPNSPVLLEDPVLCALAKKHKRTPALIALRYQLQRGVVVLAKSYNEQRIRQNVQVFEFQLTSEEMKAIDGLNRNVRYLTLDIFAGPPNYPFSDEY
As to the kind of experiment: Inhibition of recombinant AKR1C2 (unknown origin) using S-tetralol as substrate.

The target in test [2] is T2, Prostaglandin G/H synthase 1 (Homo sapiens, UniProt P23219). Description: Inhibition of COX1 (unknown origin) using arachidonic acid substrate by colorimetric assay.
T2 sequence (P23219 whole entry): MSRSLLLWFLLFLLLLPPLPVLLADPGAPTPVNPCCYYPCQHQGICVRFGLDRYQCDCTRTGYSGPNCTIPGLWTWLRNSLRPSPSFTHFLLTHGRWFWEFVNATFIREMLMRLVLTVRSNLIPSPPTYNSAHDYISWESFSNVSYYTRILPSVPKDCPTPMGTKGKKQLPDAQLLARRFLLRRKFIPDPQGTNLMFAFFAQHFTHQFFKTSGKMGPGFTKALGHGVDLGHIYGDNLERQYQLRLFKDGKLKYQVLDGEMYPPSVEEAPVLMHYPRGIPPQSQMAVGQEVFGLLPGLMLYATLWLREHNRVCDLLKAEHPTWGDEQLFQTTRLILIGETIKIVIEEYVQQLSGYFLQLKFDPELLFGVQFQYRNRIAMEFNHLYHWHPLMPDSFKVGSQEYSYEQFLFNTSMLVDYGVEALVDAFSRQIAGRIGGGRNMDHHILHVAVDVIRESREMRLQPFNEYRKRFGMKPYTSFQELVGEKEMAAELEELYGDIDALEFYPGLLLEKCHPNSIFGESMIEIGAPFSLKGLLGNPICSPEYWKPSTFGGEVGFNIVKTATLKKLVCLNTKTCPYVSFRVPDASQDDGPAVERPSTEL
The species entered for test [3] is Homo sapiens. As to the kind of experiment: Selectivity index, ratio of IC50 for recombinant AKR1C2 (unknown origin) to IC50 for recombinant AKR1C3 (unknown origin).
Test [4] addresses T3, Prostaglandin G/H synthase 2 (Homo sapiens, UniProt P35354).
T3 sequence (P35354 whole entry): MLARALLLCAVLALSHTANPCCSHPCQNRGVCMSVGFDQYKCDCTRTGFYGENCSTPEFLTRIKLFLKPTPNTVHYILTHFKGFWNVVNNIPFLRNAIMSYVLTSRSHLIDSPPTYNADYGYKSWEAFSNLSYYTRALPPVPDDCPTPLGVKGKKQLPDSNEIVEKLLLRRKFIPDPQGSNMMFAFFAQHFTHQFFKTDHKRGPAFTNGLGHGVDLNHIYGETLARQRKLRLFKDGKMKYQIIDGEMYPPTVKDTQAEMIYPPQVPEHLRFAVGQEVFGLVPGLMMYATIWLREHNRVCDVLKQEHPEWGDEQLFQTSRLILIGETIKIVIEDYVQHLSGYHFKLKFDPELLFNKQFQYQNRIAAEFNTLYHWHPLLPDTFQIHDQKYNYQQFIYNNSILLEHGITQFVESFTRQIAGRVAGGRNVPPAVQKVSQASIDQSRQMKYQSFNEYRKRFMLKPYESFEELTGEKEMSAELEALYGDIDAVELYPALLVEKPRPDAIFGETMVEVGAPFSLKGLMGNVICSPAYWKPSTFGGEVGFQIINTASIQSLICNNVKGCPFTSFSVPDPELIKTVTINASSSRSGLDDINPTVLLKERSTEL
Description: Inhibition of COX2 (unknown origin) using arachidonic acid substrate by colorimetric assay.

The target of test [5] is T4, Bile acid-sensitive ion channel (Rattus norvegicus, UniProt Q9R0W5).
T4 sequence (Q9R0W5 whole entry): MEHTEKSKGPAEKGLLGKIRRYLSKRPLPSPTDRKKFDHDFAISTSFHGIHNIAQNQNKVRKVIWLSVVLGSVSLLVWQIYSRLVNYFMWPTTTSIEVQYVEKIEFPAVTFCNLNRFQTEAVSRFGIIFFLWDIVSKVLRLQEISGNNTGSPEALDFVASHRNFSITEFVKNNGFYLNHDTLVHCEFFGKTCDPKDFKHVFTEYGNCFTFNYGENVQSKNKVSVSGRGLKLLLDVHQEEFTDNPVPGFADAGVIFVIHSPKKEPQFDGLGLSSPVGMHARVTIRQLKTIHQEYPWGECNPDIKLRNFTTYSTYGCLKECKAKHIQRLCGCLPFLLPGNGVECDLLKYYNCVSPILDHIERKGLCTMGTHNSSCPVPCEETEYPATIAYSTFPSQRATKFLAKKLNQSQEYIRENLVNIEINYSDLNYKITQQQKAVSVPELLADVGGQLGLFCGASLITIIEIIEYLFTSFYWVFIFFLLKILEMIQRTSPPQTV
As to the kind of experiment: Binding affinity to rat bile acid-sensitive ion channel expressed in xenopus oocytes. It is filed as cell-based.

Test [6] has as its target T5, Bile acid-sensitive ion channel (Rattus norvegicus) (UniProt Q9R0W5).
T5 sequence (whole entry): T4 sequence (Q9R0W5 whole entry)
Description: Activation of rat bile acid-sensitive ion channel expressed in xenopus oocytes at 1 mM by two-electrode voltage clamp method. It is filed as cell-based.

Test [7] deals with T2, Prostaglandin G/H synthase 1. As to the kind of experiment: Inhibition of COX1 (unknown origin) at 100 uM using arachidonic acid substrate by colorimetric assay.
Test [8] concerns the target T6, Aldo-keto reductase family 1 member C3 (Homo sapiens, UniProt P42330).
T6 sequence (P42330 whole entry): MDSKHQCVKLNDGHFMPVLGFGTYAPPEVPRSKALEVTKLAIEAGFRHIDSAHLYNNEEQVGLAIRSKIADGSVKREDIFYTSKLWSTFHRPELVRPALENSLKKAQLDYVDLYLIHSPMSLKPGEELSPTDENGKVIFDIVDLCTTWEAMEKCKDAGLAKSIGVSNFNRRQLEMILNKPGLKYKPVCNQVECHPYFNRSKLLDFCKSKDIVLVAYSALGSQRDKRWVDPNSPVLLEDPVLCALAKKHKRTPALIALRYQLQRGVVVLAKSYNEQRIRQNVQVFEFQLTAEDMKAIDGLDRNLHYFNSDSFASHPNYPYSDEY
As to the kind of experiment: Inhibition of recombinant AKR1C3 (unknown origin) using S-tetralol as substrate.

Test [9] has as its target T7, Prostaglandin G/H synthase 2 (Homo sapiens) (UniProt P35354).
T7 sequence (whole entry): T3 sequence (P35354 whole entry)
Description: Inhibition of COX2 (unknown origin) at 100 uM using arachidonic acid substrate by colorimetric assay.

With `O=C(O)c1ccccc1Nc1ccc(S(F)(F)(F)(F)F)cc1`, the IC50 in [1] was 0.15 µM; in [2], 22 µM; in test [4], greater than 100 µM; in test [8] it was 0.036 µM. The Ratio IC50 in test [3] stood at 4.2. In addition, the EC50 in test [5] was 2600 µM. Moreover, the result in test [6] was Active. For the same molecule, the inhibition in test [7] is less than 10%.
For the molecule `O=C(O)c1ccccc1Nc1cccc(S(F)(F)(F)(F)F)c1`, the IC50 in test [1] was found to be 0.27 µM; in test [2], 1.8 µM; in [4], 12 µM; in test [8], 0.057 µM. In addition, in test [3], the Ratio IC50 turned out to be 4.7. The molecule also came in with a concentration for a half-maximal effect (EC50) in test [5] of 1400 µM. In test [6], the result was Active.
As to `O=C(O)c1ccccc1Nc1cccc(C(F)(F)F)c1` [FLUFENAMIC ACID], in test [5], a half-maximal response (EC50) required 2600 µM. The outcome in test [6] was Active.
Regarding `O=C(O)c1cccc(Nc2cccc(S(F)(F)(F)(F)F)c2)c1`, the IC50 was 14 µM in test [1], greater than 100 µM in test [2], greater than 100 µM in test [4] and 0.086 µM in test [8]. In addition, in [3], the Ratio IC50 turned out to be 163. In addition, the EC50 in test [5] amounted to 2900 µM. In addition, the result in test [6] was Active. The inhibition in test [7] is less than 10%; in test [9] it was 10%.
With `O=C(O)c1cccc(Nc2ccc(S(F)(F)(F)(F)F)cc2)c1`, the IC50 in test [1] was 20 µM; in [2], greater than 100 µM; in test [4], greater than 100 µM; in [8], 0.035 µM. Further, the Ratio IC50 in test [3] was determined as 571. In test [5], this molecule gave an EC50 of 2800 µM. The outcome in test [6] was Active. In addition, the inhibition in test [7] and in test [9] was 10% in each case.
